Assay results: ChEMBL document CHEMBL3352346, “Optimization of sphingosine-1-phosphate-1 receptor agonists: effects of acidic, basic, and zwitterionic chemotypes on pharmacokinetic and pharmacodynamic profiles” (J Med Chem, 2014)
≈ marks a conversion by molar mass, not a printed value.

Legend:
[1] = biological target: Sphingosine 1-phosphate receptor 1 (Homo sapiens, UniProt P21453); assay: Agonist activity at human S1P1R expressed in RH7777 membranes assessed as [35S]GTPgammaS binding after 30 mins; assay type: functional, cell membranes
Sequence of Sphingosine 1-phosphate receptor 1 (P21453 whole entry): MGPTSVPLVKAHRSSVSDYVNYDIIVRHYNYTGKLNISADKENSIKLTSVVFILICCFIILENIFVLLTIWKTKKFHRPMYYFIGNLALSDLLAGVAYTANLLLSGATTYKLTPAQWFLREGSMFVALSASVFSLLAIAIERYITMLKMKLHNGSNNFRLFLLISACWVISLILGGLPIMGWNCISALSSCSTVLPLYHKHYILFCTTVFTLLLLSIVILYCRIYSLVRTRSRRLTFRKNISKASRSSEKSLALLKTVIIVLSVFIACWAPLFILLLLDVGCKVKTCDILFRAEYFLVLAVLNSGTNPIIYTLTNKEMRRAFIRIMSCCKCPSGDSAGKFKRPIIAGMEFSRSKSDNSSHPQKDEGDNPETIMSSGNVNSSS

[2] = biological target: Sphingosine 1-phosphate receptor 3 (Homo sapiens, UniProt Q99500); assay: Agonist activity at human S1P3R expressed in RBL membranes assessed as [35S]GTPgammaS binding after 30 mins; assay type: functional, cell membranes
Sequence of Sphingosine 1-phosphate receptor 3 (Q99500 whole entry): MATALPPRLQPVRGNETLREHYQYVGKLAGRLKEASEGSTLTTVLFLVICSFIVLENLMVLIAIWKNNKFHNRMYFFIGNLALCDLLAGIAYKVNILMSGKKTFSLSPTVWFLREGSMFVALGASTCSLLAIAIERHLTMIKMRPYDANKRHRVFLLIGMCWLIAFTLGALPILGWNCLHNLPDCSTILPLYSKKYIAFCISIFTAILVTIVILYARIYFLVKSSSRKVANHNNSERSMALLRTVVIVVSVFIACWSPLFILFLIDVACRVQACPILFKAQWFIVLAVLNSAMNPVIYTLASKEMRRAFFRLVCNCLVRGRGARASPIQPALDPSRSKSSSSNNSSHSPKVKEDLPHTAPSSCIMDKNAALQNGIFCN

[3] = Solubility in fed-state simulated intestinal fluid at pH 5 after 24 hrs; assay type: ADME
[4] = Solubility in fed-state simulated intestinal fluid at pH 6.5 after 24 hrs; assay type: ADME
Cytochrome P450 1A2 = biological target: T1, Cytochrome P450 1A2 (Homo sapiens, UniProt P05177); assay: Inhibition of CYP1A2 (unknown origin); assay type: ADME
T1 sequence (P05177 whole entry): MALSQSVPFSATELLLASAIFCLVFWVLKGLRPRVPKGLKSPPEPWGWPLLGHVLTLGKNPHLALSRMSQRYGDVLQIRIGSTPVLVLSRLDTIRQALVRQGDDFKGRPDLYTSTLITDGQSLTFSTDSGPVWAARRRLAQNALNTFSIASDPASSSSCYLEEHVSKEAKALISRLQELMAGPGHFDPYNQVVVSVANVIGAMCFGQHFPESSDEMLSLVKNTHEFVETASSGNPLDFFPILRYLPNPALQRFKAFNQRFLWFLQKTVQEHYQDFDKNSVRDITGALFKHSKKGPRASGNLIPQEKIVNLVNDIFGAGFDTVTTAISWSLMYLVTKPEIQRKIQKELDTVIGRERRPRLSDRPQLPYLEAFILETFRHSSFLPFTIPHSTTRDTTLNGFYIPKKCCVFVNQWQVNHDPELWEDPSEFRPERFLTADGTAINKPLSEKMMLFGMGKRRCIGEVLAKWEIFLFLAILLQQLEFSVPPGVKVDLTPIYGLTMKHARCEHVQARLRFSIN

Cytochrome P450 2C9 = Cytochrome P450 2C9 (Homo sapiens, UniProt P11712); assay: Inhibition of CYP2C9 (unknown origin); assay type: ADME
Sequence of Cytochrome P450 2C9 (P11712 whole entry): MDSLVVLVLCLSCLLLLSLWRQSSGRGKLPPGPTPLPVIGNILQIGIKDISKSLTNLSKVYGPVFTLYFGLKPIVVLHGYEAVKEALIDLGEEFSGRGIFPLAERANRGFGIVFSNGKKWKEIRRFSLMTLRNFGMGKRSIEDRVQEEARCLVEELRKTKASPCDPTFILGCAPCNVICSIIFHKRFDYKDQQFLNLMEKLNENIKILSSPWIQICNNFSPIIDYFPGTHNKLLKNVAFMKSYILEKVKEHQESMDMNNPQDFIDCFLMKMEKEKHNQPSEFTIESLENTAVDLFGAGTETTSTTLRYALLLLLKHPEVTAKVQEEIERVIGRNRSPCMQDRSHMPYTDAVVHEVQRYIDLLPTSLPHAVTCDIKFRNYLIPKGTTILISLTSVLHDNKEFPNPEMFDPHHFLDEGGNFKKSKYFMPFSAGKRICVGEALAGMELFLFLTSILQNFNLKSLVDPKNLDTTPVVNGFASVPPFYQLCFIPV

Cytochrome P450 2C19 = Cytochrome P450 2C19 (Homo sapiens, UniProt P33261); assay: Inhibition of CYP2C19 (unknown origin); assay type: ADME
Sequence of Cytochrome P450 2C19 (P33261 whole entry): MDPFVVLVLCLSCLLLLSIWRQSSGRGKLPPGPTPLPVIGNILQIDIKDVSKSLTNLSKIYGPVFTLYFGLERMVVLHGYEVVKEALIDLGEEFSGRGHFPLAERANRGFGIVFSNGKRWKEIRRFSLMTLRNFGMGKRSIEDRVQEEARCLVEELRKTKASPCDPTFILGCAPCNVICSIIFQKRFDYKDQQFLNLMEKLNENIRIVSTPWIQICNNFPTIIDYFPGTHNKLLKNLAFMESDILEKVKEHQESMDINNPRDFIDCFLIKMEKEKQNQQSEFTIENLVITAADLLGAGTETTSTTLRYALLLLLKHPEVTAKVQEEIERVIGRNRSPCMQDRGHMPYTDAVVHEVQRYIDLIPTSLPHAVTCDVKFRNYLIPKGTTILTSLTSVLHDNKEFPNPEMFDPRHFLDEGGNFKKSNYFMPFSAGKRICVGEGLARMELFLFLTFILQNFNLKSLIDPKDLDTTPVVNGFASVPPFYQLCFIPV

Cytochrome P450 2D6 = Cytochrome P450 2D6 (Homo sapiens, UniProt P10635); assay: Inhibition of CYP2D6 (unknown origin); assay type: ADME
Sequence of Cytochrome P450 2D6 (P10635 whole entry): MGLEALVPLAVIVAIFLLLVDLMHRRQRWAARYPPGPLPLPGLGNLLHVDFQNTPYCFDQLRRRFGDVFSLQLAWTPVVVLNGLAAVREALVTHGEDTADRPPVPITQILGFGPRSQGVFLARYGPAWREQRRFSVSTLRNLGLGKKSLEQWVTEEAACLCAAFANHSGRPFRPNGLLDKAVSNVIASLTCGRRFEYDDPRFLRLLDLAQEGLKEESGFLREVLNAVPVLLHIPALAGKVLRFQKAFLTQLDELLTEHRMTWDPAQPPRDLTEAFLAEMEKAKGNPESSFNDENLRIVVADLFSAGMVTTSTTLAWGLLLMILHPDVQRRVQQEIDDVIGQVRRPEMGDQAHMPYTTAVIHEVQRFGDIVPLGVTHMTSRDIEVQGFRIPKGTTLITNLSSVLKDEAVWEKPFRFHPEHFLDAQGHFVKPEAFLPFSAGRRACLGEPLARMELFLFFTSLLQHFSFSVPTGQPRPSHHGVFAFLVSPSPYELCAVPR

[5] = Inhibition of CYP3A4VG (unknown origin); assay type: ADME, Homo sapiens
[6] = Inhibition of CYP3A4VR (unknown origin); assay type: ADME, Homo sapiens
[7] = Permeability in MDCK cells; assay type: ADME, cell-based, Canis lupus familiaris; settings: dog, read-out: permeability
[8] = Fraction unbound in rat blood; assay type: ADME, tissue-based
[9] = Fraction unbound in dog blood; assay type: ADME, tissue-based, Canis lupus familiaris
[10] = Fraction unbound in human blood; assay type: ADME, tissue-based
Hepatocyte = assay: Intrinsic clearance in rat hepatocyte; assay type: ADME, cell-based; settings: hepatocytes
[11] = Intrinsic clearance in dog hepatocyte; assay type: ADME, cell-based, Canis lupus familiaris; settings: hepatocytes
Rattus norvegicus = assay: Reduction in lymphocyte level in po dosed male Lewis rat; assay type: functional, organism-based; settings: Rattus norvegicus, Lewis
[12] = Clearance in CD rat at 1 mg/kg, iv or 3 mg/kg, po using DMSO/10%(w/v) Kleptose, 0.9% saline(aq) (2%/98%); assay type: ADME, organism-based; settings: in vivo
[13] = Volume of distribution at steady state in CD rat at 1 mg/kg, iv or 3 mg/kg, po using DMSO/10%(w/v) Kleptose, 0.9% saline(aq) (2%/98%); assay type: ADME, organism-based; settings: in vivo, read-out: Vdss
[14] = Half life in CD rat at 1 mg/kg, iv or 3 mg/kg, po using DMSO/10%(w/v) Kleptose, 0.9% saline(aq) (2%/98%); assay type: ADME, organism-based; settings: in vivo
[15] = Oral bioavailability in CD rat at 3 mg/kg using Methylcellulose(aq), 1% (w/v) suspension; assay type: ADME, organism-based; settings: CD, in vivo
[16] = Clearance in Beagle dog at 1 mg/kg, iv or 2 mg/kg, po using DMSO/10%(w/v) Kleptose, 0.9% saline(aq) (2%/98%); assay type: ADME, organism-based, Canis lupus familiaris; settings: in vivo
[17] = Volume of distribution at steady state in Beagle dog at 1 mg/kg, iv or 2 mg/kg, po using DMSO/10%(w/v) Kleptose, 0.9% saline(aq) (2%/98%); assay type: ADME, organism-based, Canis lupus familiaris; settings: beagle, in vivo, read-out: Vdss
[18] = Half life in Beagle dog at 1 mg/kg, iv or 2 mg/kg, po using DMSO/10%(w/v) Kleptose, 0.9% saline(aq) (2%/98%); assay type: ADME, organism-based, Canis lupus familiaris; settings: beagle, in vivo
[19] = Oral bioavailability in Beagle dog at 2 mg/kg using Methylcellulose(aq), 1% (w/v) suspension; assay type: ADME, organism-based, Canis lupus familiaris; settings: beagle, in vivo
[20] = Clearance in cynomolgus monkey at 1 mg/kg, iv or 3 mg/kg, po using DMSO/10%(w/v) Kleptose, 0.9% saline(aq) (2%/98%); assay type: ADME, organism-based, Macaca fascicularis; settings: in vivo
[21] = Volume of distribution at steady state in cynomolgus monkey at 1 mg/kg, iv or 3 mg/kg, po using DMSO/10%(w/v) Kleptose, 0.9% saline(aq) (2%/98%); assay type: ADME, organism-based, Macaca fascicularis; settings: in vivo, read-out: Vdss
[22] = Half life in cynomolgus monkey at 1 mg/kg, iv or 3 mg/kg, po using DMSO/10%(w/v) Kleptose, 0.9% saline(aq) (2%/98%); assay type: ADME, organism-based, Macaca fascicularis; settings: in vivo
[23] = Oral bioavailability in cynomolgus monkey at 3 mg/kg using Methylcellulose(aq), 1% (w/v) suspension; assay type: ADME, organism-based, Macaca fascicularis; settings: in vivo
[24] = Solubility in simulated gastric fluid; assay type: ADME
[25] = Dissociation constant, pKa of the compound; assay type: physicochemical

Work on `CC(C)Oc1ccc(-c2nc(-c3cccc4c3CCN(CCC(=O)O)CC4)no2)cc1Cl` yielded an EC50 [1] of 0.158 µM and an EC50 [2] of over 31.6 µM.
`CC(C)Oc1ccc(-c2nc(-c3cccc4c3OCCN(CCCC(=O)O)C4)no2)cc1Cl` showed an EC50 [1] of 0.0398 µM, an EC50 [2] of over 31.6 µM and a solubility at 24 h [3] of 30 µg/mL (≈ 63.6 µM). For the same molecule, the solubility at 24 h [4] was 320 µg/mL (≈ 678 µM), the IC50 (Cytochrome P450 1A2) was over 50 µM and the IC50 (Cytochrome P450 2C9) was 27 µM. The IC50 (Cytochrome P450 2C19) was over 50 µM, the IC50 (Cytochrome P450 2D6) was over 50 µM and the IC50 [5] was 40 µM. It also gave an IC50 [6] of 39 µM, a Papp [7] of 15.5 ×10⁻⁶ cm/s and a fraction unbound [8] of 0.012. For the same molecule, the fraction unbound [9] was 0.018, the fraction unbound [10] was 0.02 and the CLH (Hepatocyte) was 1 mL/min/g. It also gave a CLH [11] of 8.3 mL/min/g, an IC50 (Rattus norvegicus) of 0.127 µM and a clearance [12] of 7 mL/min/kg. It also gave a Vd [13] of 1.2 L/kg, a half-life [14] of 3 h and a bioavailability [15] of 83%. The clearance [16] was 26 mL/min/kg, the Vd [17] was 1 L/kg and the half-life [18] was 0.4 h. For the same molecule, the bioavailability [19] was 57%, the clearance [20] was 30 mL/min/kg and the Vd [21] was 4 L/kg. The half-life [22] was 3.2 h, the bioavailability [23] was 39% and the solubility [24] was over 1320 µg/mL. The pKa [25] was 7.39.
`CC(C)Oc1ccc(-c2nc(-c3cccc4c3CCN(CC(=O)O)CC4)no2)cc1Cl` gave an EC50 [1] of 2.51 µM and an EC50 [2] of over 31.6 µM.
`CC(C)Oc1ccc(-c2nc(-c3ccc4c(c3)OCCNC4)no2)cc1Cl` gave an EC50 [1] of 0.316 µM and an EC50 [2] of over 31.6 µM.
For `CC(C)Oc1ccc(-c2nc(-c3cccc4c3CN(CCCC(=O)O)C4)no2)cc1C#N`, the EC50 [1] was 0.398 µM and the EC50 [2] was over 31.6 µM.
`CC(C)Oc1ccc(-c2nc(-c3cccc4c3CCNCC4)no2)cc1Cl` gave an EC50 [1] of 0.0158 µM and an EC50 [2] of over 31.6 µM.
For `CC(C)Oc1ccc(-c2nc(-c3cccc4c3CCNC4)no2)cc1Cl`, the EC50 [1] was 0.0398 µM and the EC50 [2] was 15.8 µM.
`CC(C)Oc1ccc(-c2nc(-c3cccc4c3CCCNC4)no2)cc1Cl` showed an EC50 [1] of 0.631 µM and an EC50 [2] of over 31.6 µM.
`CC(C)Oc1ccc(-c2nc(-c3ccc4c(c3)CCCNC4)no2)cc1C#N` gave an EC50 [1] of 0.126 µM and an EC50 [2] of over 31.6 µM.
In the case of `CC(C)Oc1ccc(-c2nc(-c3cccc4c3OCCNC4CCC(=O)O)no2)cc1Cl` (stereo not given), the EC50 [1] is reported as 0.00501 µM and the EC50 [2] is reported as over 31.6 µM.
`CC(C)Oc1ccc(-c2nc(-c3ccc4c(c3)CN(CCCC(=O)O)CCO4)no2)cc1C#N` showed an EC50 [1] of 0.0631 µM and an EC50 [2] of 25.1 µM.
`CC(C)Oc1ccc(-c2nc(-c3ccc4c(c3)CCNC4)no2)cc1C#N` gave an EC50 [1] of 0.00398 µM and an EC50 [2] of 31.6 µM.
Work on `CC(C)Oc1ccc(-c2nc(-c3ccc4c(c3)CCCNC4)no2)cc1Cl` yielded an EC50 [1] of 0.398 µM and an EC50 [2] of over 31.6 µM.
For `CC(C)Oc1ccc(-c2nc(-c3cccc4c3CN(CCC(=O)O)C4)no2)cc1Cl`, the EC50 [1] was 0.316 µM and the EC50 [2] was 7.94 µM.
For `CC(C)Oc1ccc(-c2nc(-c3ccc4c(c3)CNCCO4)no2)cc1Cl`, the EC50 [1] was 0.126 µM and the EC50 [2] was 15.8 µM.
In the case of `CC(C)Oc1ccc(-c2nc(-c3ccc4c(c3)CCN(CCC(=O)O)C4)no2)cc1C#N`, the EC50 [1] is reported as 0.00631 µM and the EC50 [2] is reported as 3.98 µM.
Work on `CC(C)Oc1ccc(-c2nc(-c3ccc4c(c3)CN(CCC(=O)O)CCO4)no2)cc1Cl` yielded an EC50 [1] of 0.126 µM and an EC50 [2] of 2 µM.
`CC(C)Oc1ccc(-c2nc(-c3cccc4c3CN(CCCC(=O)O)C4)no2)cc1Cl` gave an EC50 [1] of 0.501 µM and an EC50 [2] of 2 µM.
